# Assay results published in ChEMBL document CHEMBL1240439, “Synthesis and docking studies of novel benzopyran-2-ones with anticancer activity” (2010).
# Calls of active or inactive are those of the source. The calls are words filed in the database; no cut-off is given here.
# How the values were obtained:
# Assay type in all cases: functional
# [1] = test system: SF-295; test: Cytotoxicity against human SF295 cells assessed as cell growth at 10 uM after 48 hrs by sulforhodamine B assay; conditions: for growth at 10 µM: SF-295, 48 h, read-out: Activity
# [2] = test system: RPMI-8226; test: Cytotoxicity against human RPMI8226 cells assessed as cell growth at 10 uM after 48 hrs by sulforhodamine B assay; conditions: for growth at 10 µM: RPMI-8226, 48 h, read-out: Activity
# [3] = test system: MOLT-4; test: Cytotoxicity against human MOLT4 cells assessed as cell growth at 10 uM after 48 hrs by sulforhodamine B assay; conditions: for growth at 10 µM: MOLT-4, 48 h, read-out: Activity
# [4] = test system: K562; test: Cytotoxicity against human K562 cells assessed as cell growth at 10 uM after 48 hrs by sulforhodamine B assay; conditions: for growth at 10 µM: K562, 48 h, read-out: Activity
# [5] = test system: NCI-H522; test: Cytotoxicity against human NCI-H522 cells assessed as cell growth at 10 uM after 48 hrs by sulforhodamine B assay
# [6] = test system: HT-29; test: Cytotoxicity against human HT-29 cells assessed as cell growth at 10 uM after 48 hrs by sulforhodamine B assay
# [7] = test system: PC-3; test: Cytotoxicity against human PC3 cells assessed as cell growth at 10 uM after 48 hrs by sulforhodamine B assay
# [8] = test system: UACC-62; test: Cytotoxicity against human UACC62 cells assessed as cell growth at 10 uM after 48 hrs by sulforhodamine B assay; conditions: for growth at 10 µM: UACC-62, 48 h, read-out: Activity
# [9] = test system: HL-60(TB); test: Cytotoxicity against human HL-60(TB) cells assessed as cell growth at 10 uM after 48 hrs by sulforhodamine B assay
# [10] = test system: SR; test: Cytotoxicity against human SR cells assessed as cell growth at 10 uM after 48 hrs by sulforhodamine B assay
# [11] = test system: EKVX; test: Cytotoxicity against human EKVX cells assessed as cell growth at 10 uM after 48 hrs by sulforhodamine B assay
# [12] = test system: SK-MEL-2; test: Cytotoxicity against human SK-MEL-2 cells assessed as cell growth at 10 uM after 48 hrs by sulforhodamine B assay
# [13] = test system: OVCAR-4; test: Cytotoxicity against human OVCAR4 cells assessed as cell growth at 10 uM after 48 hrs by sulforhodamine B assay
# [14] = test system: T47D; test: Cytotoxicity against human T47D cells assessed as cell growth at 10 uM after 48 hrs by sulforhodamine B assay
# [15] = test system: A549; test: Cytotoxicity against human A549 cells assessed as cell growth at 10 uM after 48 hrs by sulforhodamine B assay
# [16] = test system: HOP-62; test: Cytotoxicity against human HOP62 cells assessed as cell growth at 10 uM after 48 hrs by sulforhodamine B assay
# [17] = test system: HOP-92; test: Cytotoxicity against human HOP92 cells assessed as cell growth at 10 uM after 48 hrs by sulforhodamine B assay
# [18] = test system: NCI-H322M; test: Cytotoxicity against human NCI-H322M cells assessed as cell growth at 10 uM after 48 hrs by sulforhodamine B assay
# [19] = test system: NCI-H460; test: Cytotoxicity against human NCI-H460 cells assessed as cell growth at 10 uM after 48 hrs by sulforhodamine B assay
# [20] = test system: NCI-H226; test: Cytotoxicity against human NCI-H226 cells assessed as cell growth at 10 uM after 48 hrs by sulforhodamine B assay
# [21] = test system: NCI-H23; test: Cytotoxicity against human NCI-H23 cells assessed as cell growth at 10 uM after 48 hrs by sulforhodamine B assay
# [22] = test system: COLO 205; test: Cytotoxicity against human COLO205 cells assessed as cell growth at 10 uM after 48 hrs by sulforhodamine B assay
# [23] = test system: HCC 2998; test: Cytotoxicity against human HCC2998 cells assessed as cell growth at 10 uM after 48 hrs by sulforhodamine B assay
# [24] = test system: HCT-116; test: Cytotoxicity against human HCT116 cells assessed as cell growth at 10 uM after 48 hrs by sulforhodamine B assay
# [25] = test system: HCT-15; test: Cytotoxicity against human HCT15 cells assessed as cell growth at 10 uM after 48 hrs by sulforhodamine B assay
# [26] = test system: KM12; test: Cytotoxicity against human KM12 cells assessed as cell growth at 10 uM after 48 hrs by sulforhodamine B assay
# [27] = test system: SW-620; test: Cytotoxicity against human SW620 cells assessed as cell growth at 10 uM after 48 hrs by sulforhodamine B assay
# [28] = test system: MCF7; test: Cytotoxicity against human MCF7 cells assessed as cell growth at 10 uM after 48 hrs by sulforhodamine B assay
# [29] = test system: MDA-MB-468; test: Cytotoxicity against human MDA-MB-468 cells assessed as cell growth at 10 uM after 48 hrs by sulforhodamine B assay
# [30] = test system: MDA-MB-231; test: Cytotoxicity against human MDA-MB-231 cells assessed as cell growth at 10 uM after 48 hrs by sulforhodamine B assay
# [31] = test system: Hs-578T; test: Cytotoxicity against human Hs 578T cells assessed as cell growth at 10 uM after 48 hrs by sulforhodamine B assay
# [32] = test system: BT-549; test: Cytotoxicity against human BT549 cells assessed as cell growth at 10 uM after 48 hrs by sulforhodamine B assay
# [33] = test system: IGROV-1; test: Cytotoxicity against human IGROV1 cells assessed as cell growth at 10 uM after 48 hrs by sulforhodamine B assay
# [34] = test system: OVCAR-3; test: Cytotoxicity against human OVCAR-3 cells assessed as cell growth at 10 uM after 48 hrs by sulforhodamine B assay
# [35] = test system: OVCAR-5; test: Cytotoxicity against human OVCAR5 cells assessed as cell growth at 10 uM after 48 hrs by sulforhodamine B assay
# [36] = test system: OVCAR-8; test: Cytotoxicity against human OVCAR8 cells assessed as cell growth at 10 uM after 48 hrs by sulforhodamine B assay
# [37] = test system: SK-OV-3; test: Cytotoxicity against human SKOV3 cells assessed as cell growth at 10 uM after 48 hrs by sulforhodamine B assay
# [38] = test system: CCRF-CEM; test: Cytotoxicity against human CCRF-CEM cells assessed as cell growth at 10 uM after 48 hrs by sulforhodamine B assay
# [39] = test system: 786-0; test: Cytotoxicity against human 786-0 cells assessed as cell growth at 10 uM after 48 hrs by sulforhodamine B assay
# [40] = test system: A498; test: Cytotoxicity against human A498 cells assessed as cell growth at 10 uM after 48 hrs by sulforhodamine B assay
# [41] = test system: ACHN; test: Cytotoxicity against human ACHN cells assessed as cell growth at 10 uM after 48 hrs by sulforhodamine B assay
# [42] = test system: SN12C; test: Cytotoxicity against human SN12C cells assessed as cell growth at 10 uM after 48 hrs by sulforhodamine B assay
# [43] = test system: RXF 393; test: Cytotoxicity against human RXF393 cells assessed as cell growth at 10 uM after 48 hrs by sulforhodamine B assay
# [44] = test system: TK-10; test: Cytotoxicity against human TK10 cells assessed as cell growth at 10 uM after 48 hrs by sulforhodamine B assay
# [45] = test system: UO-31; test: Cytotoxicity against human UO31 cells assessed as cell growth at 10 uM after 48 hrs by sulforhodamine B assay
# [46] = test system: LOX IMVI; test: Cytotoxicity against human LOXIMVI cells assessed as cell growth at 10 uM after 48 hrs by sulforhodamine B assay
# [47] = test system: M14; test: Cytotoxicity against human M14 cells assessed as cell growth at 10 uM after 48 hrs by sulforhodamine B assay
# [48] = test system: Malme-3M; test: Cytotoxicity against human MALME-3M cells assessed as cell growth at 10 uM after 48 hrs by sulforhodamine B assay
# [49] = test system: MDA-MB-435; test: Cytotoxicity against human MDA-MB-435 cells assessed as cell growth at 10 uM after 48 hrs by sulforhodamine B assay
# [50] = test system: SK-MEL-28; test: Cytotoxicity against human SK-MEL-28 cells assessed as cell growth at 10 uM after 48 hrs by sulforhodamine B assay
# [51] = test system: SK-MEL-5; test: Cytotoxicity against human SK-MEL-5 cells assessed as cell growth at 10 uM after 48 hrs by sulforhodamine B assay
# [52] = test system: UACC-257; test: Cytotoxicity against human UACC257 cells assessed as cell growth at 10 uM after 48 hrs by sulforhodamine B assay
# [53] = test system: DU-145; test: Cytotoxicity against human DU145 cells assessed as cell growth at 10 uM after 48 hrs by sulforhodamine B assay
# [54] = test system: SF-268; test: Cytotoxicity against human SF268 cells assessed as cell growth at 10 uM after 48 hrs by sulforhodamine B assay
# [55] = test system: SF-539; test: Cytotoxicity against human SF539 cells assessed as cell growth at 10 uM after 48 hrs by sulforhodamine B assay
# [56] = test system: SNB-19; test: Cytotoxicity against human SNB19 cells assessed as cell growth at 10 uM after 48 hrs by sulforhodamine B assay
# [57] = test system: SNB-75; test: Cytotoxicity against human SNB75 cells assessed as cell growth at 10 uM after 48 hrs by sulforhodamine B assay
# [58] = test system: U-251; test: Cytotoxicity against human U251 cells assessed as cell growth at 10 uM after 48 hrs by sulforhodamine B assay
structure (smiles),measurement,setting,value
CSc1nnc(COc2ccc3c(-c4ccccc4)cc(=O)oc3c2C)o1,Activity,[1],inactive
same,Activity,[2],inactive
same,Activity,[3],inactive
same,Activity,[4],inactive
same,Activity,[5],inactive
same,Activity,[6],inactive
same,Activity,[7],inactive
same,Activity,[8],inactive
same,Activity,[9],inactive
same,Activity,[10],inactive
same,Activity,[11],inactive
same,Activity,[12],inactive
same,Activity,[13],inactive
same,Activity,[14],inactive
same,Activity,[15],inactive
same,Activity,[16],inactive
same,Activity,[17],inactive
same,Activity,[18],inactive
same,Activity,[19],inactive
same,Activity,[20],inactive
same,Activity,[21],inactive
same,Activity,[22],inactive
same,Activity,[23],inactive
same,Activity,[24],inactive
same,Activity,[25],inactive
same,Activity,[26],inactive
same,Activity,[27],inactive
same,Activity,[28],inactive
same,Activity,[29],inactive
same,Activity,[30],inactive
same,Activity,[31],inactive
same,Activity,[32],inactive
same,Activity,[33],inactive
same,Activity,[34],inactive
same,Activity,[35],inactive
same,Activity,[36],inactive
same,Activity,[37],inactive
same,Activity,[38],inactive
same,Activity,[39],inactive
same,Activity,[40],inactive
same,Activity,[41],inactive
same,Activity,[42],inactive
same,Activity,[43],inactive
same,Activity,[44],inactive
same,Activity,[45],inactive
same,Activity,[46],inactive
same,Activity,[47],inactive
same,Activity,[48],inactive
same,Activity,[49],inactive
same,Activity,[50],inactive
same,Activity,[51],inactive
same,Activity,[52],inactive
same,Activity,[53],inactive
same,Activity,[54],inactive
same,Activity,[55],inactive
same,Activity,[56],inactive
same,Activity,[57],inactive
same,Activity,[58],inactive
CCCc1cc(=O)oc2cc(OCC(=O)n3nc(C)cc3C)ccc12,Activity,[1],inactive
same,Activity,[2],inactive
same,Activity,[3],inactive
same,Activity,[4],inactive
same,Activity,[5],inactive
same,Activity,[6],inactive
same,Activity,[7],inactive
same,Activity,[8],inactive
same,Activity,[9],inactive
same,Activity,[10],inactive
same,Activity,[11],inactive
same,Activity,[12],inactive
same,Activity,[13],inactive
same,Activity,[14],inactive
same,Activity,[15],inactive
same,Activity,[16],inactive
same,Activity,[17],inactive
same,Activity,[18],inactive
same,Activity,[19],inactive
same,Activity,[20],inactive
same,Activity,[21],inactive
same,Activity,[22],inactive
same,Activity,[23],inactive
same,Activity,[24],inactive
same,Activity,[25],inactive
same,Activity,[26],inactive
same,Activity,[27],inactive
same,Activity,[28],inactive
same,Activity,[29],inactive
same,Activity,[30],inactive
same,Activity,[31],inactive
same,Activity,[32],inactive
same,Activity,[33],inactive
same,Activity,[34],inactive
same,Activity,[35],inactive
same,Activity,[36],inactive
same,Activity,[37],inactive
same,Activity,[38],inactive
same,Activity,[39],inactive
same,Activity,[40],inactive
same,Activity,[41],inactive
same,Activity,[42],inactive
same,Activity,[43],inactive
same,Activity,[44],inactive
same,Activity,[45],inactive
same,Activity,[46],inactive
same,Activity,[47],inactive
same,Activity,[48],inactive
same,Activity,[49],inactive
same,Activity,[50],inactive
same,Activity,[51],inactive
same,Activity,[52],inactive
same,Activity,[53],inactive
same,Activity,[54],inactive
same,Activity,[55],inactive
same,Activity,[56],inactive
same,Activity,[57],inactive
same,Activity,[58],inactive
CCCc1cc(=O)oc2cc(OCc3nnc(S)n3Cc3ccccc3)ccc12,growth at 10 µM,[1],53%
same,growth at 10 µM,[2],37.3%
same,growth at 10 µM,[3],58.7%
same,growth at 10 µM,[4],46.9%
same,growth at 10 µM,[8],59.7%
same,growth at 10 µM,"[9]; HL-60, 48 h, read-out: Activity",59.7%
same,growth at 10 µM,[10]; read-out: Activity,57.6%
same,growth at 10 µM,[11]; read-out: Activity,57.7%
same,growth at 10 µM,"[12]; SK-MEL-2, 48 h, read-out: Activity",53.4%
same,growth at 10 µM,"[13]; OVCAR-4, 48 h, read-out: Activity",48.7%
same,growth at 10 µM,[14]; read-out: Activity,50.7%
CCCc1cc(=O)oc2c(C)c(OCc3nnc(SC)o3)ccc12,growth at 10 µM,[1],21.9%
Cc1c(OCc2nnc(-c3ccccc3)o2)ccc2c(-c3ccccc3)cc(=O)oc12,growth at 10 µM,[2],47.5%
Cc1c(OCc2nnc(S)n2Cc2ccccc2)ccc2c(-c3ccccc3)cc(=O)oc12,growth at 10 µM,[1],45.8%
same,growth at 10 µM,[2],31.5%
same,growth at 10 µM,[3],49%
same,growth at 10 µM,[4],53.6%
same,growth at 10 µM,"[5]; NCI-H522, 48 h, read-out: Activity",56.6%
same,growth at 10 µM,"[6]; HT-29, 48 h, read-out: Activity",57.1%
same,growth at 10 µM,"[7]; PC-3, 48 h, read-out: Activity",56.6%
same,growth at 10 µM,[8],59.9%
